Measured values from patent US10583119B2, “Compounds, compositions and methods for making the same” (Signum Biosciences, Inc., priority 2008, dated 2020).

Tests used:
[1] = tested on: JNPL3 transgenic mice; experiment: Motor functions of JNPL3 transgenic mice (composite neuroscore); format: in vivo; details: 0.1% diet
Protocol: The JNPL3 transgenic mouse line that carries the transgene for the human P301 L mutation of the microtubule-associated protein tau gene (MAPT) was used in this experiment (Lewis et al., 2000). 9-12 weeks old homozygous JNPL3 males (Laconic Farms, Hudson, N.Y.) were housed under standard conditions (temperature 22±2° C.; relative humidity 50±10%; 12 h light/12 h dark cycle) and allowed to acclimatize for 2 weeks. Following acclimatization, two groups of animals (6 animals per group) are changed to control diet (Research Diets; New Brunswick, N.J.) or purified 0.1% Compound I-63 formulated diet. The composite neuroscore (NS) was used as the scoring system to measure the following tasks: (1) forelimb flexion response during suspension by the tail, (2) righting and postural reflexes, and (3) prehensile traction test (Yoshiyama et al., 2005; Korenova et al., 2009). The neurological and motor examination included the basic reflex response by special attention to the assessment of the hind-limb escape extension reflex, the righting and postural reflexes and the prehensile traction test where the animal is allowed to grasp with its forepaws a horizontal cotton string (1 mm in diameter) suspended 70 cm above a padded surface. The scoring conditions were graded as follows:
2—Animal maintained forelimbs in scissored, clasped or dystonic position
Postural and Righting Reflex:
0—Animal could right when placed supine
1—Animal righting slowed (>ls)
Prehensile Traction Test:
0—Animal could complete test with at least 3 paws and tail within 2 min
1—Animal could hold on to string without falling within 2 min
2—Animal fell before 2 min without completion
3—Animal was unable to perform test
Each animal was scored using a scaling system ranging from 0-12 (normal), 13-20 (mild or early), 21-23 (moderate) and 24-30 (severe) to reflect serious impairment of neuromuscular functionality and muscular weakness. […]
Motor test scores vs. weeks of mice fed control diet (closed circles) and 0.1% Compound I-63 formulated diet (open circles). […]

[2] = tested on: N2a Neuroblastoma Cells; experiment: Cytotoxicity in N2a neuroblastoma cells (CellTiter 96 AQueous One); format: cell-based; details: all concentrations tested (1-50 μM)
Protocol: 2×10^4 N2a cells were plated in each well of a 96-well cell culture plate containing 100 pi EMEM (Gibco), supplemented with 10% FBS (N2a growth medium), and were incubated at 37° C. for 48 hours. On the day of treatment, stock solutions of […] of Compound I-63 in ethanol were further diluted with N2a growth medium to obtain Compound I-63-containing N2a medium with 50 μM, 10 μM, 5 μM and 1 μM Compound I-63. The final concentration of ethanol in all media dilutions was 1%, and therefore 1% ethanol was added to the 0 μM Compound I-63 (untreated) control. The media dilutions were applied to the N2a cells (100 µl per well) and incubated at 37° C. for 4 hours or 24 hours. At the end of the treatment period, cell media was removed and 100 μl of pre-warmed phenol red-free N2a growth media was added to each well. 20 µl of the CellTiter 96® AQueous One Solution (Promega) was added to each well and the dish was incubated at 37° C. for 1-4 hours until visible reddish color develops. The dish was read at a wavelength of 490 nm using a plate reader. N2a cells were grown in 96-well dishes and were treated for 4 hours (♦) or 24 hours (i) with increasing concentrations of Compound I-63. Cell survival was assayed using the CellTiter 96® AQueous One Solution (Promega) using the manufacturer's directions. […]

[3] = tested on: phosphorylated Tau; experiment: Phosphorylated tau in vivo at four weeks (pS396 Western blot of brain); design: species or system mice; details: 0.1% in chow, phospho-Serine 396
Protocol: Swiss Webster mice (9-12 weeks old) were fed ad libitum, either standard rodent chow (Control), or rodent chow formulated with 0.1 g Compound I-63 per 100 g chow (0.1% Compound I-63) or 0.1 g Compound I-62 per 100 g chow (0.1% Compound I-62); water was changed weekly. Mice were housed at 23° C., on a 12 hour light and dark cycle, with 6 mice per cage. At 4 weeks, six mice from the Control, 0.1% Compound I-63 and 0.1% Compound I-62 groups were sacrificed by cervical dislocation, brains removed, snap-frozen in liquid nitrogen, and stored at −80° C. Brains were homogenized in 350 pi of buffer containing 20 mM MOPS-Na, pH 7.2, 1 mM EDTA/DTT, 0.5 mg/L of aprotinin, leupeptin and pepstatin, 100 nM okadaic acid, and clarified by centrifugation (14000 rpm, 10 min, 4° C.). Supernatant protein concentrations were measured by the Bradford method, 4 volumes of the supernatant and 1 volume of 5×SDS sample buffer were mixed and boiled for 2 minutes. Boiled homogenate ([…]) were loaded on 12% polyacrylamide gels, and transferred to nitrocellulose membranes. […] Protein bands were detected with the ECL Plus reagent (GE Healthcare) and blots scanned on a Molecular Dynamics Storm Imager. […]

With `CCCCCCCCCCCCCCCCCCCC(=O)NCCc1c[nH]c2ccc(O)cc12` [Compound I-63, N-(2-(5-hydroxy-1H-indol-3-yl)ethyl)icosanamide] the “mean motor test scores less than mice on control diet” value ([1]; after eleven weeks) was 75%, the “protection from developing motor dysfunction” value ([1]; after ten weeks) was “protection of JNPL3 transgenic mice from developing motor dysfunction” and the “mean motor test scores less than mice on control diet” value ([1]; after twelve weeks) was 75%. The cell survival ([2]; 4 hours) was “over 85%”, the cell survival ([2]; 24 hours) was “over 85%” and the “lowering of phosphorylated tau levels in the brain compared to control” value [3] was 40%.
